Reference: US20250034216A1, “STEREOSELECTIVE COVALENT LIGANDS FOR ONCOGENIC AND IMMUNOLOGICAL PROTEINS” (The Scripps Research Institute, priority 2021, published 2025)

What was measured:
APOOL_C79 = biological target: T1, APOOL_C79 (Homo sapiens, UniProt Q6UXV4); experiment: IA-DTB cysteine engagement; type: binding; settings: 22Rv1 cells, 20 μM probe, 1 h, relative to DMSO
T1 construct: endogenous in cells; host or cells: 22Rv1
T1 sequence (Q6UXV4 28-268): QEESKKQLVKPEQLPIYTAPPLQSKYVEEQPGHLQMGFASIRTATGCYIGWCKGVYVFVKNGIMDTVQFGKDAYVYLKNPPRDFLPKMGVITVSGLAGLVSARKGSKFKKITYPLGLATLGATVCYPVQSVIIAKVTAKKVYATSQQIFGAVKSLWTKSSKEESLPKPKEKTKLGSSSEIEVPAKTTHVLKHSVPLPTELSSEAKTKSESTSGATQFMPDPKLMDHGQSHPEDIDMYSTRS
In short: (§1)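 First, cells are exposed to electrophilic probes in situ. Next, lysates are labeled with IA-DTB (1 h, ambient temperature), reduced, alkylated and trypsin-digested. Then, IA-DTB peptides are enriched on streptavidin, TMT-labeled and analyzed, with ratios taken against DMSO channels.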

MMS19_C819 = biological target: T2, MMS19_C819 (Homo sapiens, UniProt Q96T76); experiment: IA-DTB cysteine engagement; type: binding; settings: 22Rv1 cells, 20 μM probe, 1 h, relative to DMSO
T2 construct: endogenous in cells; host or cells: 22Rv1
T2 sequence (Q96T76 1-1030): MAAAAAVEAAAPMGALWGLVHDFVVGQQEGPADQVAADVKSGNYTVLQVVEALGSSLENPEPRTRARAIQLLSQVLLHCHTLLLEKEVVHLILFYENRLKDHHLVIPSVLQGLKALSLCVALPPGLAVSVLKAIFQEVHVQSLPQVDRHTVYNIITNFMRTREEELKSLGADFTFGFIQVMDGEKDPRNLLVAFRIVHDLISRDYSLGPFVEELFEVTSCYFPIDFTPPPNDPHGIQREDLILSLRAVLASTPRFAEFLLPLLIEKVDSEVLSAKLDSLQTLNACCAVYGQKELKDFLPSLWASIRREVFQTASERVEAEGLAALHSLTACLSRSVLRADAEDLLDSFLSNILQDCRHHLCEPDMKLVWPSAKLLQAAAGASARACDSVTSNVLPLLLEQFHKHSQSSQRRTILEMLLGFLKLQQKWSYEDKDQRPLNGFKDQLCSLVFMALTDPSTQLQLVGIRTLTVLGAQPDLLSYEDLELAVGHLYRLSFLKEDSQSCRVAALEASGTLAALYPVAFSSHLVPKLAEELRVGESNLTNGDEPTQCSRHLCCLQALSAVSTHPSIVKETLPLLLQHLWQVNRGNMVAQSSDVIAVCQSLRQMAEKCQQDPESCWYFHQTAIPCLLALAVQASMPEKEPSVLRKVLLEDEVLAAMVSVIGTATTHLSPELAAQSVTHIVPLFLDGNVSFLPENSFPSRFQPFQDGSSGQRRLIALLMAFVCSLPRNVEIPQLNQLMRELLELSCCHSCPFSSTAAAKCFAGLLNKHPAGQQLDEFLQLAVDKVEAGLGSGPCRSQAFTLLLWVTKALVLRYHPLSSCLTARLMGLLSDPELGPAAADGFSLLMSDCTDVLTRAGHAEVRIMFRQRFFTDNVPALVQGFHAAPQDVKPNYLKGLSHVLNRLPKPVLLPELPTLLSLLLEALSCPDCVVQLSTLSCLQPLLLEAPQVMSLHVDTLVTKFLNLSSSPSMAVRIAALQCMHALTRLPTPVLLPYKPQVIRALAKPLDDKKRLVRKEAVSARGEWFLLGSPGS
In short: as §1

| % engagement APOOL_C79 (APOOL_C79) | % engagement MMS19_C819 (MMS19_C819) | Structure (SMILES) |
| --- | --- | --- |
| 69% | 11% | C=CC(=O)N1C[C@H](c2ccc(Br)cc2)[C@H]1C(=O)Nc1cccc2cccnc12 [MY-3B, (2S,3S)-1-acryloyl-3-(4-bromophenyl)-N-(quinolin-8-yl)azetidine-2-carboxamide] |
| 73% | 90% | C=CC(=O)N1C[C@H](c2ccc(Br)cc2)[C@@H]1C(=O)Nc1cccc2cccnc12 [MY-1B, (2R,3S)-1-acryloyl-3-(4-bromophenyl)-N-(quinolin-8-yl)azetidine-2-carboxamide] |
| 48% | −10% | C=CC(=O)N1C[C@H](c2ccc(Br)cc2)[C@H]1C(=O)Nc1cccc2cccnc12 [MY-3A, (2S,3S)-1-acryloyl-3-(4-bromophenyl)-N-(quinolin-8-yl)azetidine-2-carboxamide] |
| 54.25% | 1.5% | C=CC(=O)N1C[C@@H](c2ccc(Br)cc2)[C@H]1C(=O)Nc1cccc2cccnc12 [MY-1A, (2S,3R)-1-acryloyl-3-(4-bromophenyl)-N-(quinolin-8-yl)azetidine-2-carboxamide] |
